Assay results as given in patent US7205306B2, “Substituted pyrazinones, pyridines and pyrimidines as corticotropin releasing factor ligands” (Bristol-Myers Squibb Pharma Company, priority 2001, dated 2007).

Point of comparison: CCC(C)n1cc(Cl)nc(N2CCc3cc(Br)cc(Cl)c32)c1=O (stereo not shown) [Example 538, 3-(5-Bromo-7-chloro-2,3-dihydro-1H-indol-1-yl)-5-chloro-1-methylpropyl-2(1H)-pyrazinone], melting point 150 °C. Against it:
- CCC(CC)n1cc(Br)nc(N2CCc3cc(Cl)cc(Cl)c32)c1=O [Example 507, 5-Bromo-3-(5,7-dichloro-2,3-dihydro-1H-indol-1-yl)-1-(1-ethylpropyl)-2(1H)-pyrazinone] — higher, 158 to 160 °C
- CC[C@H](C1CC1)n1cc(Cl)nc(N2CCc3cc(Cl)cc(Cl)c32)c1=O [Example 511, 5-Chloro-1-[(1R)-1-cyclopropylpropyl]-3-(5,7-dichloro-2,3-dihydro-1H-indol-1-yl)-2(1H)-pyrazinone] — higher, 166 to 168 °C
- CC[C@H](C1CC1)n1cc(Cl)nc(N2CCc3cc(Br)cc(Br)c32)c1=O [Example 512, 5-Chloro-1-[(1R)-1-cyclopropylpropyl]-3-(5,7-dibromo-2,3-dihydro-1H-indol-1-yl)-2(1H)-pyrazinone] — higher, 164 to 165 °C
- CC[C@H](C1CC1)n1cc(Cl)nc(N2CCc3cc(OC)c(F)c(Cl)c32)c1=O [Example 513, 5-Chloro-3-(7-chloro-6-fluoro-5-methoxy-2,3-dihydro-1H-indol-1-yl)-1-[(1R)-1-cyclopropylpropyl]-2(1H)-pyrazinone] — lower, 128 to 130 °C
- CC[C@@H](C1CC1)n1cc(Cl)nc(N2CCc3cc(Cl)cc(Cl)c32)c1=O [Example 517, 5-Chloro-1-[(1S)-1-cyclopropylpropyl]-3-(5,7-dichloro-2,3-dihydro-1H-indol-1-yl)-2(1H)-pyrazinone] — higher, 157 to 159 °C
- CC[C@@H](C1CC1)n1cc(Cl)nc(N2CCc3cc(Br)cc(Br)c32)c1=O [Example 518, 5-Chloro-1-[(1S)-1-cyclopropylpropyl]-3-(5,7-dibromo-2,3-dihydro-1H-indol-1-yl)-2(1H)-pyrazinone] — higher, 165 °C
- CC[C@@H](C1CC1)n1cc(Cl)nc(N2CCc3cc(OC)c(F)c(Cl)c32)c1=O [Example 519, 5-Chloro-3-(7-chloro-6-fluoro-5-methoxy-2,3-dihydro-1H-indol-1-yl)-1-[(1S)-1-cyclopropylpropyl]-2(1H)-pyrazinone] — lower, 127 to 129 °C
- COC[C@@H](C)n1cc(Cl)nc(N2CCc3cc(Cl)cc(Cl)c32)c1=O [Example 520, 5-Chloro-3-(5,7-dichloro-2,3-dihydro-1H-indol-1-yl)-1-[(1R)-2-methoxy-1-methylethyl]-2(1H)-pyrazinone] — lower, 93 to 95 °C
- COC[C@@H](C)n1cc(Cl)nc(N2CCc3cc(Br)cc(Br)c32)c1=O [Example 521, 5-Chloro-3-(5,7-dibromo-2,3-dihydro-1H-indol-1-yl)-1-[(1R)-2-methoxy-1-methylethyl]-2(1H)-pyrazinone] — lower, 119 to 120 °C
- CCC(COC)n1cc(Cl)nc(N2CCc3cc(OC)c(F)c(Cl)c32)c1=O (stereo not shown) [Example 522, 5-Chloro-3-(7-chloro-6-fluoro-5-methoxy-2,3-dihydro-1H-indol-1-yl)-1-[1-(methoxymethyl)propyl]-2(1H)-pyrazinone] — lower, 140 to 142 °C
- CC[C@H](COC)n1cc(Cl)nc(N2CCc3cc(Cl)cc(Cl)c32)c1=O [Example 524, 5-Chloro-3-(5,7-dichloro-2,3-dihydro-1H-indol-1-yl)-1-[(1R)-1-(methoxymethyl)propyl]-2(1H)-pyrazinone] — lower, 143 to 146 °C
- CC[C@H](COC)n1cc(Br)nc(N2CCc3cc(Cl)cc(Cl)c32)c1=O [Example 527, 5-Bromo-3-(5,7-dichloro-2,3-dihydro-1H-indol-1-yl)-1-[(1R)-1-(methoxymethyl)propyl]-2(1H)-pyrazinone] — not separable, 150 to 152 °C
- CC[C@H](COC)n1cc(Br)nc(N2CCc3cc(OC)c(F)c(Cl)c32)c1=O [Example 528, 5-Bromo-3-(7-chloro-6-fluoro-5-methoxy-2,3-dihydro-1H-indol-1-yl)-1-[(1R)-1-(methoxymethyl)propyl]-2(1H)-pyrazinone] — not separable, 150 to 152 °C
- CC[C@@H](COC)n1cc(Cl)nc(N2CCc3cc(Cl)cc(Cl)c32)c1=O [Example 530, 5-Chloro-3-(5,7-dichloro-2,3-dihydro-1H-indol-1-yl)-1-[(1S)-1-(methoxymethyl)propyl]-2(1H)-pyrazinone] — lower, 143 to 146 °C
- CC[C@@H](COC)n1cc(Br)nc(N2CCc3cc(Cl)cc(Cl)c32)c1=O [Example 531, 5-Bromo-3-(5,7-dichloro-2,3-dihydro-1H-indol-1-yl)-1-[(1S)-1-(methoxymethyl)propyl]-2(1H)-pyrazinone] — higher, 152 to 154 °C
- CSCCn1cc(Cl)nc(N2CCc3cc(Cl)cc(Cl)c32)c1=O [Example 535, 5-Chloro-3-(5,7-dichloro-2,3-dihydro-1H-indol-1-yl)-1-[2-(methylthio)ethyl]-2(1H)-pyrazinone] — lower, 127 to 128 °C
- CCc1cn(C(CC)CC)c(=O)c(N2CCc3cc(Cl)cc(Cl)c32)n1 [Example 539, 3-(5,7-Dichloro-2,3-dihydro-1H-indol-1-yl)-5-ethyl-1-(1-ethylpropyl)-2(1H)-pyrazinone] — lower, 136 to 137 °C
- CCC(CC)n1cc(Cl)nc(N2CCc3cc(Br)cc(Cl)c32)c1=O [Example 540, 3-(5-Bromo-7-chloro-2,3-dihydro-1H-indol-1-yl)-5-chloro-1-(1-ethylpropyl)-2(1H)-pyrazinone] — higher, 156 to 157 °C
- CCC(CC)n1cc(C#N)nc(N2CCc3cc(Cl)cc(Cl)c32)c1=O [Example 541, 6-(5,7-Dichloro-2,3-dihydro-1H-indol-1-yl)-4-(1-ethylpropyl)-4,5-dihydro-5-oxo-2-pyrazinecarbonitrile] — higher, 197 to 199 °C
- CC[C@H](C1CC1)n1cc(Cl)nc(N2CCc3cc(Br)cc(Cl)c32)c1=O [Example 542, 3-(5-Bromo-7-chloro-2,3-dihydro-1H-indol-1-yl)-5-chloro-1-[(1R)-1-cyclopropylpropyl]-2(1H)-pyrazinone] — higher, 154 to 156 °C
- CC[C@@H](C1CC1)n1cc(Cl)nc(N2CCc3cc(Br)cc(Cl)c32)c1=O [Example 543, 3-(5-Bromo-7-chloro-2,3-dihydro-1H-indol-1-yl)-5-chloro-1-[(1S)-1-cyclopropylpropyl]-2(1H)-pyrazinone] — lower, 126 to 127 °C
- CC[C@H](COC)n1cc(Cl)nc(N2CCc3cc(OC)cc(C#N)c32)c1=O [Example 546, 1-[6-Chloro-4-[(1R)-1-(methoxymethyl)propyl]-3,4-dihydro-3-oxopyrazinyl]-5-methoxy-2,3-dihydro-1H-indole-7-carbonitrile] — lower, 141 to 142 °C
- CC[C@H](COC)n1cc(Br)nc(N2CCc3cc(Br)cc(Cl)c32)c1=O [Example 547, 5-Bromo-3-(5-bromo-7-chloro-2,3-dihydro-1H-indol-1-yl)-1-[(1R)-1-(methoxymethyl)propyl]-2(1H)-pyrazinone] — lower, 118 °C
- CC[C@@H](COC)n1cc(Cl)nc(N2CCc3cc(Br)cc(Cl)c32)c1=O [Example 548, 3-(5-Bromo-7-chloro-2,3-dihydro-1H-indol-1-yl)-5-chloro-1-[(1S)-1-(methoxymethyl)propyl]-2(1H)-pyrazinone] — lower, 121 to 122 °C
- CCC(CC)n1cc(Cl)nc(N2CCCc3cc(OC)cc(Br)c32)c1=O [Example 550, 3-(8-Bromo-6-methoxy-1,2,3,4-tetrahydroquinoline)-5-chloro-1-(1-ethylpropyl)-2(1H)-pyrazinone] — lower, 125 to 126 °C
- CC[C@H](C1CC1)n1cc(Cl)nc(N2CCCc3cc(OC)cc(Br)c32)c1=O [Example 551, 3-(8-Bromo-6-methoxy-1,2,3,4-tetrahydroquinoline)-5-chloro-1-[(1R)-1-cyclopropylpropyl]-2(1H)-pyrazinone] — lower, 127 to 129 °C
- CC[C@@H](C1CC1)n1cc(Cl)nc(N2CCCc3cc(OC)cc(Br)c32)c1=O [Example 552, 3-(8-Bromo-6-methoxy-1,2,3,4-tetrahydroquinoline)-5-chloro-1-[(1S)-1-cyclopropylpropyl]-2(1H)-pyrazinone] — lower, 118 to 119 °C
- COC[C@@H](C)n1cc(Cl)nc(N2CCCc3cc(OC)cc(Br)c32)c1=O [Example 553, 3-(8-Bromo-6-methoxy-1,2,3,4-tetrahydroquinoline)-5-chloro-1-[(1R)-2-methoxy-1-methylethyl]-2(1H)-pyrazinone] — lower, 146 °C
- CC[C@H](COC)n1cc(Br)nc(N2CCCc3cc(OC)cc(Br)c32)c1=O [Example 554, 5-Bromo-3-(8-bromo-6-methoxy-1,2,3,4-tetrahydroquinoline)-1-[(1R)-1-(methoxymethyl)propyl]-2(1H)-pyrazinone] — lower, 102 to 103 °C
- CC[C@@H](COC)n1cc(Cl)nc(N2CCCc3cc(OC)cc(Br)c32)c1=O [Example 555, 3-(8-Bromo-6-methoxy-1,2,3,4-tetrahydroquinoline)-5-chloro-1-[(1S)-1-(methoxymethyl)propyl]-2(1H)-pyrazinone] — lower, 93 to 94 °C
